Target: T1, human TRPA1 (Homo sapiens, UniProt O75762)
T1 construct: expressed in transfected cells; host or cells: CHO cells
Assay: TRPA1 FLIPR Tetra calcium influx assay in CHO cells (block of cinnamaldehyde-induced calcium influx)
Format: cell-based
Conditions: Table 2; CHO cells expressing TRPA1; agonist cinnamaldehyde 75 uM; 20 min compound incubation; Hill coefficient fixed to 1.5; read-out: hTRPA1 CHO Ca2+ AUC EVO (IC50)
Outline: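 IC50s were derived from a Hill fit with n fixed at 1.5, using inhibition of FLIPR Tetra calcium signals in dye-loaded TRPA1-CHO cells. Cells sat with compound 20 min at room temperature in HBSS with 20 mM HEPES (pH 7.4) and 0.02% BSA, then were challenged with cinnamaldehyde near EC80: 75 µM human, 45 µM rat.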

T1 sequence (O75762 whole entry): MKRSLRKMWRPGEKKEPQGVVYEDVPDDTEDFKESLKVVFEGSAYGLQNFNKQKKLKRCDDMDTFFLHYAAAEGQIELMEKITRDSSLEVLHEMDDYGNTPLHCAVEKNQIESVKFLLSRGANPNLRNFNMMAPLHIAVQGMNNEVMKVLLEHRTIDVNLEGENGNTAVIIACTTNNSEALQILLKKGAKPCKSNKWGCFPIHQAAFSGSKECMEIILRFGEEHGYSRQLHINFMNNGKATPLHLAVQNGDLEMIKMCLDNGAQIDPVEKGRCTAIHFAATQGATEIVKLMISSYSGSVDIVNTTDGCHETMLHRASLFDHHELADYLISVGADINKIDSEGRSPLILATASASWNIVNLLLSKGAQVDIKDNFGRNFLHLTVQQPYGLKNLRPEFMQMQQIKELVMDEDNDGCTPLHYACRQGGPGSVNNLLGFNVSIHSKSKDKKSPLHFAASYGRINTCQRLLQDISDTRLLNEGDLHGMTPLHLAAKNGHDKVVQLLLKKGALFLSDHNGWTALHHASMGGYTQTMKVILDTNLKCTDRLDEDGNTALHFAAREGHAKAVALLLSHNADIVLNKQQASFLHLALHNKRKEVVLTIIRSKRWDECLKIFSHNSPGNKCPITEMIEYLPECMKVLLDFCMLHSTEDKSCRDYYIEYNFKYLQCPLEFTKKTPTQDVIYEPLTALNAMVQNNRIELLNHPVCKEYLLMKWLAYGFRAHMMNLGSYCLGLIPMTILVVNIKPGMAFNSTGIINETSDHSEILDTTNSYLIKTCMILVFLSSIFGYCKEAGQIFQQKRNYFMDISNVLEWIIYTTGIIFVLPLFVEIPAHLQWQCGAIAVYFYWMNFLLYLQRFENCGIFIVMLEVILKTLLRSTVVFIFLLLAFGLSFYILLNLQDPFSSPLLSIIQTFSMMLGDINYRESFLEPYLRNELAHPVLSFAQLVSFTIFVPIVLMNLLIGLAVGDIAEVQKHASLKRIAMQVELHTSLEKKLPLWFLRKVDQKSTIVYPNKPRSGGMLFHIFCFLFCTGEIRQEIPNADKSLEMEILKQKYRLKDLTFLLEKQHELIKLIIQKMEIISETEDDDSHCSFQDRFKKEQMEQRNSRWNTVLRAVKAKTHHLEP

Row | Structure (SMILES) | IC50
1 | C[C@H]1[C@H](F)C[C@@H](C(=O)NCc2cc(-c3cnc(C(F)(F)F)nc3)ncc2C(F)(F)F)N1S(=O)(=O)c1ccc(C#N)cc1 [Example 116, (2S,4R,5S)-1-(4-cyanophenyl)sulfonyl-4-fluoro-5-methyl-N-[[5-(trifluoromethyl)-2-[2-(trifluoromethyl)pyrimidin-5-yl]-4-pyridyl]methyl]pyrrolidine-2-carboxamide] | 5.75 nM
2 | C[C@H]1[C@H](F)C[C@@H](C(=O)NCc2cc(-c3cnc(C(F)(F)F)nc3)ncc2OCC(F)(F)F)N1S(=O)(=O)c1ccc(F)cc1 [Example 122, (2S,4R,5S)-4-fluoro-1-(4-fluorophenylsulfonyl)-5-methyl-N-((5-(2,2,2-trifluoroethoxy)-2-(2-(trifluoromethyl)pyrimidin-5-yl)pyridin-4-yl)methyl)pyrrolidine-2-carboxamide] | 5.51 nM
3 | C[C@H]1[C@H](F)C[C@@H](C(=O)NCc2cc(C(F)(F)F)nc(C3CC3)c2F)N1S(=O)(=O)c1ccc(F)cc1 [Example 123, (2S,4R,5S)-N-[[2-cyclopropyl-3-fluoro-6-(trifluoromethyl)-4-pyridyl]methyl]-4-fluoro-1-(4-fluorophenyl)sulfonyl-5-methyl-pyrrolidine-2-carboxamide] | 10.8 nM
4 | C[C@H]1[C@H](F)C[C@@H](C(=O)NCc2cc(-c3cnc(C(F)(F)F)nc3)nc(OCC(F)(F)F)n2)N1S(=O)(=O)c1ccc(F)cc1 [Example 124, (2S,4R,5S)-4-fluoro-1-(4-fluorophenyl)sulfonyl-5-methyl-N-[[2-(2,2,2-trifluoroethoxy)-6-[2-(trifluoromethyl)pyrimidin-5-yl]pyrimidin-4-yl]methyl]pyrrolidine-2-carboxamide] | 2.3 nM
5 | C[C@H]1[C@H](F)C[C@@H](C(=O)NCc2cc([C@H]3C[C@@H](OC(F)(F)F)C3)ncc2F)N1S(=O)(=O)c1ccc(F)cc1 [Example 127, (2S,4R,5S)-4-fluoro-1-(4-fluorophenyl)sulfonyl-N-[[5-fluoro-2-[3-(trifluoromethoxy)cyclobutyl]-4-pyridyl]methyl]-5-methyl-pyrrolidine-2-carboxamide] | 4.27 nM
6 | C[C@H]1[C@H](F)C[C@@H](C(=O)NCc2cc(-c3cc(C(F)(F)F)nn3C)ncc2F)N1S(=O)(=O)c1ccc(F)cc1 [Example 128, (2S,4R,5S)-4-fluoro-N-[[5-fluoro-2-[2-methyl-5-(trifluoromethyl)pyrazol-3-yl]-4-pyridyl]methyl]-1-(4-fluorophenyl)sulfonyl-5-methyl-pyrrolidine-2-carboxamide] | 18.2 nM
7 | C[C@H]1[C@H](F)C[C@@H](C(=O)NCc2cc(-c3cnc(C(F)(F)F)s3)ncc2C#N)N1S(=O)(=O)c1ccc(F)cc1 [Example 129, (2S,4R,5S)—N-((5-cyano-2-(2-(trifluoromethyl)thiazol-5-yl)pyridin-4-yl)methyl)-4-fluoro-1-((4-fluorophenyl)sulfonyl)-5-methylpyrrolidine-2-carboxamide] | 4.14 nM
8 | C[C@H]1[C@H](F)C[C@@H](C(=O)NCc2cc(-c3cnc(C(F)(F)F)nc3)c(F)c(C3CC3)n2)N1S(=O)(=O)c1ccc(F)cc1 [Example 131, (2S,4R,5S)-N-[[6-cyclopropyl-5-fluoro-4-[2-(trifluoromethyl)pyrimidin-5-yl]-2-pyridyl]methyl]-4-fluoro-1-(4-fluorophenyl)sulfonyl-5-methyl-pyrrolidine-2-carboxamide] | 4.04 nM
9 | C[C@H]1[C@H](F)C[C@@H](C(=O)NCc2cc(OC[C@@H]3C[C@H]3C(F)(F)F)nc(C3CC3)n2)N1S(=O)(=O)c1ccc(F)cc1 [Example 132, (2S,4R,5S)-N-[[2-cyclopropyl-6-[[(1R,2R)-2-(trifluoromethyl)cyclopropyl]methoxy]pyrimidin-4-yl]methyl]-4-fluoro-1-(4-fluorophenyl)sulfonyl-5-methyl-pyrrolidine-2-carboxamide] | 15.2 nM

Other lines, results leading:

Row | IC50 | Structure (SMILES)
10 | 1.09 nM | COc1nn(-c2cnc(C(F)(F)F)nc2)cc1CNC(=O)[C@@H]1C[C@@H](F)[C@H](C)N1S(=O)(=O)c1cc2cc(F)ccc2o1 [Example 117, (2S,4R,5S)-4-fluoro-1-(5-fluorobenzofuran-2-yl)sulfonyl-N-[[3-methoxy-1-[2-(trifluoromethyl)pyrimidin-5-yl]pyrazol-4-yl]methyl]-5-methyl-pyrrolidine-carboxamide]
11 | 2.29 nM | C[C@H]1[C@H](F)C[C@@H](C(=O)NCc2cc(-c3cnc(C(F)(F)F)nc3)c(F)cn2)N1S(=O)(=O)c1ccc(F)c(F)c1 [Example 118, (2S,4R,5S)-1-(3,4-difluorophenyl)sulfonyl-4-fluoro-N-[[5-fluoro-4-[2-(trifluoromethyl)pyrimidin-5-yl]-2-pyridyl]methyl]-5-methyl-pyrrolidine-2-carboxamide]
12 | 0.836 nM | C[C@H]1[C@H](F)C[C@@H](C(=O)NCc2cc(-c3cnc(C(F)(F)F)nc3)ncc2C(F)(F)F)N1S(=O)(=O)c1ccc(F)c(F)c1 [Example 119, (2S,4R,5S)-1-(3,4-difluorophenyl)sulfonyl-4-fluoro-5-methyl-N-[[5-(trifluoromethyl)-2-[2-(trifluoromethyl)pyrimidin-5-yl]-4-pyridyl]methyl]pyrrolidine-2-carboxamide]
13 | 1.52 nM | C[C@H]1[C@H](F)C[C@@H](C(=O)NCc2cc(C(F)(F)F)nc(C3CC3)n2)N1S(=O)(=O)c1cc2cc(F)ccc2o1 [Example 120, (2S,4R,5S)-N-[[2-cyclopropyl-6-(trifluoromethyl)pyrimidin-4-yl]methyl]-4-fluoro-1-(5-fluorobenzofuran-2-yl)sulfonyl-5-methyl-pyrrolidine-2-carboxamide]
14 | 1.45 nM | C[C@H]1[C@H](F)C[C@@H](C(=O)NCc2cc(-c3cnc(C(F)(F)F)nc3)nc(C3CC3)c2)N1S(=O)(=O)c1ccc(F)cc1 [Example 121, (2S,4R,5S) N-[[2-cyclopropyl-6-[2-(trifluoromethyl)pyrimidin-5-yl]-4-pyridyl]methyl]-4-fluoro-1-(4-fluorophenyl)sulfonyl-5-methyl-pyrrolidine-2-carboxamide]
15 | 4.9 nM | C[C@H]1[C@H](F)C[C@@H](C(=O)NCc2cc(-c3cnc(C(F)(F)F)nc3)ncc2C2CC2)N1S(=O)(=O)c1ccc(F)cc1 [Example 125, (2S,4R,5S)-N-[[5-cyclopropyl-2-[2-(trifluoromethyl)pyrimidin-5-yl]-4-pyridyl]methyl]-4-fluoro-1-(4-fluorophenyl)sulfonyl-5-methyl-pyrrolidine-2-carboxamide]
16 | 12.8 nM | COc1nc(CNC(=O)[C@@H]2C[C@@H](F)[C@H](C)N2S(=O)(=O)c2ccc(F)cc2)cc(-c2cnc(C(F)(F)F)nc2)n1 [Example 126, (2S,4R,5S)-4-fluoro-1-(4-fluorophenyl)sulfonyl-N-[[2-methoxy-6-[2-(trifluoromethyl)pyrimidin-5-yl]pyrimidin-4-yl]methyl]-5-methyl-pyrrolidine-2-carboxamide]
17 | 3.82 nM | C[C@H]1[C@H](F)C[C@@H](C(=O)NCc2cc(-c3cnc(C(F)(F)F)nc3)cc(C3CC3)n2)N1S(=O)(=O)c1ccc(F)cc1 [Example 130, (2S,4R,5S)-N-[[6-cyclopropyl-4-[2-(trifluoromethyl)pyrimidin-5-yl]-2-pyridyl]methyl]-4-fluoro-1-(4-fluorophenyl)sulfonyl-5-methyl-pyrrolidine-2-carboxamide]
